Calls of active or inactive are those of the source. No cut-off for these calls is given here.
Key:
[1] = target: T1, Alpha-ketoglutarate-dependent dioxygenase FTO (Homo sapiens, UniProt Q9C0B1); test: Inhibition of N-terminal His-tagged human FTO expressed in Escherichia coli BL21(DE3) by PAGE based assay
Target sequence in this assay (Q9C0B1 whole entry): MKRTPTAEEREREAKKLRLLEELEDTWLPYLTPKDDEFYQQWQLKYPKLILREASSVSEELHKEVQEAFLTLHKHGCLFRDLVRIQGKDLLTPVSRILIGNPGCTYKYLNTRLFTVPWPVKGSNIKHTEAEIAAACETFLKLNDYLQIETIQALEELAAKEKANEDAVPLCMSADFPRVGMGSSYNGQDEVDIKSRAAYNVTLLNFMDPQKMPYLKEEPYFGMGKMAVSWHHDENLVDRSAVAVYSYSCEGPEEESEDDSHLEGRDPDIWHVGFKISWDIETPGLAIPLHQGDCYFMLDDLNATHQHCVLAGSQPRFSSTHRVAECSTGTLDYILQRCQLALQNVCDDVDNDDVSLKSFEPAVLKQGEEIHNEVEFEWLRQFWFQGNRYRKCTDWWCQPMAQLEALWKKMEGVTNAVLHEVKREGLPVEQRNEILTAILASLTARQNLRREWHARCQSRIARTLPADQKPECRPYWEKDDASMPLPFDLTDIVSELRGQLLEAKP

MONO-MAC-6 [2] = test: Antiproliferative activity against human MONO-MAC-6 cells assessed as reduction in cell viability measured after 48 hrs by CCK-8 assay; conditions: MONO-MAC-6, 48 h
THP-1 = test: Antiproliferative activity against human THP-1 cells assessed as reduction in cell viability measured after 48 hrs by CCK-8 assay; conditions: THP-1, 48 h
NB-4 [3] = test: Inhibition of colony formation in human NB-4 cells measured after 14 days by nitroblue tetrazolium chloride staining based soft agar assay; type: functional, cell-based; conditions: dose 5-15 µM, time 14.0 day, DDE = dose-dependent effect
[4] = Toxicity in busulfan treated NSG mouse xenografted with human MONO-MAC-6 cells assessed as reduction in body weight at 20 mg/kg, ip administered once daily for 22 days; type: organism-based; conditions: in vivo, 528 h, time 22 day
NB-4 [5] = test: Antiproliferative activity against human NB-4 cells assessed as reduction in cell viability measured after 48 hrs by CCK-8 assay; conditions: NB-4, 48 h
MONO-MAC-6 [6] = test: Antitumor activity against human MONO-MAC-6 cells xenografted in busulfan treated NSG mouse assessed as increase in animal survial rate at 20 mg/kg, ip administered once daily for 22 days; type: functional, organism-based; conditions: time 22.0 day
NB-4 [7] = test: Antiproliferative activity against human NB-4 cells assessed as reduction in cell viability at 10 uM administered as single dose measured after 48 hrs by CCK-8 assay; type: functional, cell-based
MONO-MAC-6 [8] = test: Antiproliferative activity against human MONO-MAC-6 cells assessed as reduction in cell viability at 10 uM administered as single dose measured after 48 hrs by CCK-8 assay; type: functional, cell-based
HEL = test: Antiproliferative activity against HEL cells assessed as reduction in cell viability measured after 48 hrs by CCK-8 assay; conditions: Homo sapiens
[9] = Acute toxicity in BALB/c mouse assessed as body weight loss at 20 mg/kg, ip administered once daily for 7 days; type: organism-based; conditions: in vivo, 168 h, time 7 day
[10] = target: T1, Alpha-ketoglutarate-dependent dioxygenase FTO
Target sequence in this assay (Q9C0B1 whole entry, looked up): as the sequence (Q9C0B1 whole entry) above
Description: Binding affinity to N-terminal His-tagged human FTO expressed in Escherichia coli BL21(DE3) assessed as change in melting temperature at 1:5 protein to compound ratio by fluorescence based thermal shift assay

[11] = target: T1, Alpha-ketoglutarate-dependent dioxygenase FTO; remark: listed apart in the source
Target sequence in this assay (Q9C0B1 whole entry, looked up): as the sequence (Q9C0B1 whole entry) above
Description: Binding affinity to N-terminal His-tagged human FTO expressed in Escherichia coli BL21(DE3) assessed as change in melting temperature at 1:20 protein to compound ratio by fluorescence based thermal shift assay

Cc1cc(-c2cc(Cl)c(Nc3ccccc3C(=O)O)c(Cl)c2)ccn1
IC50 [1]: 6.5 µM

Cc1cc(-c2c(C)noc2C)cc(C)c1Nc1ccccc1C(=O)O
IC50 [1]: 1.9 µM

O=C(O)c1ccccc1Nc1c(Cl)cc(-c2cnoc2)cc1Cl
IC50 [1]: 1.7 µM

Cc1noc(C)c1-c1cc(F)c(Nc2ccccc2C(=O)O)c(Cl)c1
IC50 (MONO-MAC-6 [2]): 1.9 µM
IC50 (THP-1): 7.3 µM
inhibition (NB-4 [3]): Dde
Activity [4]: Toxic
IC50 (NB-4 [5]): 2.1 µM
Activity (MONO-MAC-6 [6]): Active
Activity (NB-4 [7]): Active
Activity (MONO-MAC-6 [8]): Active
IC50 (HEL): 7.7 µM
Activity [9]: Non-Toxic

COc1cccc(Nc2c(Cl)cc(-c3c(C)noc3C)cc2Cl)c1C(=O)O
IC50 [1]: 2.2 µM

COc1cc(-c2c(C)noc2C)cc(OC)c1Nc1ccccc1C(=O)O
Activity (NB-4 [7]): Active
Activity (MONO-MAC-6 [8]): Active

Cc1noc(C)c1-c1cc(Cl)c(Nc2cccc(F)c2C(=O)O)c(Cl)c1
IC50 [1]: 1.6 µM

O=C(O)c1ccccc1Nc1c(Cl)cc(-c2ccncc2)cc1Cl
ΔTm [10]: 0.5 °C
ΔTm [11]: 1.5 °C
IC50 [1]: 1.5 µM

CCc1cc(-c2c(C)noc2C)cc(CC)c1Nc1ccccc1C(=O)O
IC50 [1]: 1.4 µM

O=C(O)c1ccccc1Nc1c(Cl)cc(-c2cc(O)cc(O)c2)cc1Cl
IC50 [1]: 2.4 µM

O=C(O)c1ccccc1Nc1c(Cl)cc(-c2ccn[nH]2)cc1Cl
IC50 [1]: 7.2 µM

Cc1noc(C)c1-c1ccc(Nc2ccccc2C(=O)O)cc1
Activity (NB-4 [7]): Active
Activity (MONO-MAC-6 [8]): Active

Cc1noc(C)c1-c1cc(Cl)c(Nc2ccc(F)cc2C(=O)O)c(Cl)c1
IC50 [1]: 1.1 µM

Cc1noc(C)c1-c1cc(Cl)c(Nc2cc(F)c(F)cc2C(=O)O)c(Cl)c1
IC50 [1]: 3.4 µM
